Consider 1 compound from patent publication US20240140949A1, “ANTI-CANCER PHARMACEUTICAL COMPOSITION FOR TARGETING HEAT SHOCK PROTEIN 70, CONTAINING INDOLOQUINAZOLIDINE ALKALOID” (SEOUL NATIONAL UNIVERSITY R & DB FOUNDATION, priority 2021, published 2024).

One experiment deals with lung cancer cells. The experiment in a line: Anchorage-independent (soft agar) colony formation. The experiment is classed as cell-based. The following applies: soft agar (FIG. 20). How it is done:
Before the experiment, a 1% agar solution made with low-melting agar was placed in a 24-well plate and hardened at room temperature to create a bottom agar. The cells were diluted with medium to seed 2×10^3 cells per well in a 24-well plate. Then, it was mixed with a 1% agar solution to create a final 0.4% agar solution, which was then solidified at room temperature in the plate containing the bottom agar. Medium containing the drug was added on top of the cells mixed in the agar and cultured for 1-3 weeks at 37° C. in a 5% CO2 condition, after which the formed colonies were stained with an MTT solution of 250-500 μg/mL and counted. The colony formation inhibitory effect of the drug was calculated by expressing the change in colony numbers in the drug-treated group compared to the vehicle (DMSO) treated control group as a percentage.

Experiment [1] has as its system cancer cell lines of various origins. The experiment in a line: Anchorage-dependent colony formation in cancer cell lines of various origins. The experiment is classed as cell-based, human. The following applies: 50 nM, 2 weeks (FIG. 3). The text has this: Human lung cancer cell lines (H1299, H460, A549, H226B, and PC9), breast cancer cell line (MDA-MB-231), liver cancer cell line (Hep3B), kidney cancer cell line (786-0), prostate cancer cell lines (DU145 and PC-3), and mouse lung cancer cell line (Lewis Lung Carcinoma, LLC) were purchased from ATCC (American Type Culture Collection) or obtained from Dr. John V. Heymach of MD Anderson Cancer Center, USA. The human head and neck cancer cell line (UMSCC38) was obtained from Dr. Jeffrey N. Myers (MD Anderson Cancer Center, USA). Human colon cancer cell lines (HCT116 and HT-29) and glioblastoma cell line (U87MG) were obtained from Professor Sang Kook Lee (Seoul National University College of Pharmacy). The human kidney cancer cell line (Caki-1), and gastric cancer cell line (SNU-638) were purchased from the Korean Cell Line Bank. […]
Cancer cell lines were seeded in a 24-well or 6-well plate at 100-250 cells per well and allowed to attach, followed by treatment with drugs diluted in media and cultured for 2-3 weeks. Formed colonies were stained with crystal violet and counted. The drug's colony formation inhibitory effect was calculated as the percentage of colony number change in the drug-treated group compared to the vehicle (DMSO)-treated control group.

The subject of experiment [2] is Hsp70 protein and Hsp70/Hsp90 client proteins (Akt, Src, and MEK). As to the kind of experiment: Western blot of Hsp70 and client proteins in lung cancer cells. The format is cell-based, human. The text has this: Human lung cancer cell lines (H1299, H460, A549, H226B, and PC9), breast cancer cell line (MDA-MB-231), liver cancer cell line (Hep3B), kidney cancer cell line (786-0), prostate cancer cell lines (DU145 and PC-3), and mouse lung cancer cell line (Lewis Lung Carcinoma, LLC) were purchased from ATCC (American Type Culture Collection) or obtained from Dr. John V. Heymach of MD Anderson Cancer Center, USA. The human head and neck cancer cell line (UMSCC38) was obtained from Dr. Jeffrey N. Myers (MD Anderson Cancer Center, USA). Human colon cancer cell lines (HCT116 and HT-29) and glioblastoma cell line (U87MG) were obtained from Professor Sang Kook Lee (Seoul National University College of Pharmacy). The human kidney cancer cell line (Caki-1), and gastric cancer cell line (SNU-638) were purchased from the Korean Cell Line Bank. The chemotherapy-resistant cells [paclitaxel-resistant H460 cells (H460/PcR), paclitaxel-resistant H226B cells (H226B/PcR), cisplatin-resistant H1299 cells (H1299/CsR), pemetrexed-resistant H1299 cells (H1299/PmR)] and molecularly targeted anticancer therapy-resistant cells [erlotinib-resistant PC9 cells (PC9/ER)] were constructed by treating the respective anti-cancer drugs for more than three months. H1299, H460, H226B, PC9, Hep3B, 786-0, DU145, PC-3, HCT116, HT-29, SNU-638, chemotherapeutic resistant cells, and molecularly targeted anticancer therapy-resistant cells were cultured in RPMI 1640 media containing 10% fetal bovine serum (FBS) and antibiotics at 37° C. under 5% CO2 conditions, while MDA-MB-231, UMSCC38, U87MG, Caki-1 were cultured in DMEM media containing 10% FBS and antibiotics at 37° C. under 5% CO2 conditions. Cells were passaged 1-2 times per week.
The cells treated with the drug were treated with RIPA lysis buffer [50 mM Tris-HCl (pH 7.4), 150 mM NaCl, 1 mM EDTA, 0.25% sodium deoxycholate, 1% Triton X-100, 100 mM NaF, 5 mM Na3VO4, 1 mM PMSF, 1 μg/mL aprotinin, 1 μg/mL leupeptin, and 1 μg/mL pepstatin], followed by incubation on ice for 10 minutes and centrifugation at 13,000 rpm for 15 minutes to extract proteins. The proteins were quantified by BCA assay and equal amounts of proteins were separated by 8-10% SDS-PAGE. The separated proteins were transferred to a PVDF membrane, and the areas of the membrane not transferred with protein were blocked by incubating the membrane in 5% skim milk solution or 3% BSA solution diluted in TBST at room temperature for 1 hour. The membrane was then incubated in a primary antibody solution diluted 1:1,000 in 3% BSA at 4° C. for more than 12 hours. The primary antibody used was either anti-Hsp70 or anti-actin, with the anti-Hsp70 antibody obtained from Enzo Life Science and the actin antibody obtained from Santa Cruz Biotechnology. After incubation, the membrane was washed for 1 hour while changing TBST several times, and then incubated for 1 hour at room temperature with a secondary antibody (GeneTex) diluted 1:5,000 in 5% skim milk solution. After incubation, the membrane was washed for 1 hour while changing TBST several times, and then treated with an enhanced chemiluminescence (ECL) solution. The expression of Hsp70 or Actin protein was detected using LAS4000.

In a further experiment the test system is cancer cell. The experiment in a line: Cancer cell survival inhibitory activity (crystal violet assay). The experiment is classed as cell-based. The following applies: crystal violet assay (FIG. 19). How it is done: (§1) The cancer cell lines were seeded in a 96-well plate at a density of 2×10^3 cells per well and cultured for 24 hours to allow the cells to attach. The cells were then treated with diluted drugs in media for 3 days and cell viability was assessed using MTT assay or crystal violet (CB) assay. For the MTT assay, MTT solution dissolved in PBS was added to achieve a final concentration of 500 μg/mL and incubated for 2-4 hours, after which the medium was removed and the formed formazan was dissolved in 100% DMSO, followed by measuring the absorbance at 570 nm. For the CB assay, the cultured cells were fixed with 100% methanol, stained with a 0.025% crystal violet solution, dissolved in 1% SDS solution, and the absorbance was measured at 570 nm. Cell viability was calculated as the percentage of absorbance change in drug-treated group compared to vehicle (DMSO) treated control group.

Another experiment has as its system lung cancer cell. The experiment in a line: Cancer cell survival inhibitory activity (MTT assay) of EV501 to EV509. The format is cell-based. The following applies: 0.5 μM (lowest concentration), MTT assay (FIG. 18). How it is done:
as §1
A general note: Tetrazolium assays rely on reduction of a dye to a coloured formazan, in cell work by metabolically active cells.

As usually defined, the inhibition is the percentage by which the read-out fell short of the control.

As to `C=CCN1c2ccccc2C(=O)N2CCc3c([nH]c4ccc(O)cc34)C21` (stereo not drawn) [EV507], the anchorage-independent colony formation result in the experiment with lung cancer cells is recorded as “effectively inhibited”. The “formation of colonies under anchorage-dependent conditions” value in experiment [1] is “significantly inhibited”. Also, in experiment [2] (H1299, H460, A549, H226B lung cancer cell lines (FIG. 4)), the “expression of Hsp70 protein and Hsp70/Hsp90 client proteins (Akt, Src, and MEK)” value is given as “clear reduction”. In addition, the “expression of Hsp70 and Src and Akt (client proteins of Hsp70/Hsp90)” value in experiment [2] (Western blot (FIG. 21)) was “decrease”. Also, the “cancer cell survival inhibitory activity” value in the experiment on cancer cell was “excellent”. Besides, the inhibition at 0.5 µM in the experiment with lung cancer cell was more than 65%.
